Laboratory results as given in paper PMC7423246, “A Peptide–Lectin Fusion Strategy for Developing a Glycan Probe for Use in Various Assay Formats” (Chemosensors (Basel, Switzerland), 2019).

Target: T1, Pseudomonas fluorescens agglutinin (PFA) (Pseudomonas fluorescens, UniProt Q3KJ04)
T1 construct: gene Pfl01_0508; 14 kDa
T1 sequence (Q3KJ04 1-133): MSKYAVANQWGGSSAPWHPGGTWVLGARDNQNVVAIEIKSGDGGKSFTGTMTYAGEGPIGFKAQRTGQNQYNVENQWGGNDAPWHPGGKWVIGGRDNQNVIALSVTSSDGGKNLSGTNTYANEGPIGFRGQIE
Experiment: competitive ELISA on immobilized gp120
Conditions: inhibition of PFA binding to immobilized gp120, 400 nM PFA, 0-2000 mM mannose, room temperature not stated for this step

`OC[C@H]1OC(O)[C@@H](O)[C@@H](O)[C@@H]1O` (stereo partly shown) [mannose] was tested, and the onset of inhibition was ~ 200 mM.
